Patent US11413321B2, “Pharmaceutical composition for use in increasing hair, modifying scalp or skin, healing a wound, promoting osteogenesis, or modifying hair” (priority 2017, dated 2022)

Tested on: Cxcr4
Assay: Quantitative PCR of dorsal tissues after subcutaneous administration (Cxcr4)
Assay type: in vivo, Wistar rat
Settings: 20 μL per location into rat dorsal part; vs control without administration; FIG. 15
Protocol: 3.) C—X—C motif chemokine receptor 4 (Cxcr4), Rattus norvegicus: mRNA 1,726 bp NM 022205.3 GI: 82617587 Next, a change in gene expression in tissues was examined. Three regions were set between the head and the tail of the dorsal part of a 12-week-old Wistar rat (male), and each region was divided between the left and the right of the backbone into two regions to set a total of six regions on the dorsal part. Milk or palmitic acid was injected in an amount of 20 μL per location at two locations in the vicinity of the center of each region. The distance between the two locations was 1 cm. The collected tissue fragments were frozen with liquid nitrogen, and stored at −80° C. […] Analysis of gene expression by quantitative PCR was performed in the following manner: Integrated DNA technologies, Inc (Skokie, Ill., USA) was requested to design and synthesize gene-specific primers and probes, and using PrimeTime Gene Expression Master Mix Reagent (Integrated DNA Technologies, Inc, Skokie, Ill., USA) and Rotor-Gene Q PCR Apparatus (QIAGEN GmbH, Hilden, Germany), PCR analysis was performed twice per gene per specimen to analyze the expression level of a target gene. […]

Structure (SMILES): CCCCCCCCCCCCCCCC(=O)O [palmitic acid]
- expression level of Cxcr4 in tissues: greatly increased
